Drawing on patent publication US10781189B2, “1,2,4-Oxadiazole and thiadiazole compounds as immunomodulators” (Aurigene Discovery Technologies Limited, priority 2015, dated 2020), this text covers activation for 20 molecules.

T1 sequence (Q9EP73 with tags, fused parts or gaps limits assumed): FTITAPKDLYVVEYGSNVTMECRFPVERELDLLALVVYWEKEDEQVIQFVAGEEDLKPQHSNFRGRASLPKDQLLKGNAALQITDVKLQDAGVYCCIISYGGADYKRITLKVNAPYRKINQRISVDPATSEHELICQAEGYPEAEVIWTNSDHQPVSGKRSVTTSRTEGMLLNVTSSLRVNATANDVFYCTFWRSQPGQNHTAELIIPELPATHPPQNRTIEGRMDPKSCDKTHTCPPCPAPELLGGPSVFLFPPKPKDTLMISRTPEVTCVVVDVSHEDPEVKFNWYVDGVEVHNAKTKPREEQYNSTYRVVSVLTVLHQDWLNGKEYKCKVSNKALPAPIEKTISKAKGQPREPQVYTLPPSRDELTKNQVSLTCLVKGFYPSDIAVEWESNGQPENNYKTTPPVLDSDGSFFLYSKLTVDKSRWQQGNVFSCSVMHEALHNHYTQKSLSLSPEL

The assay concerns the target T1, Recombinant mouse PD-L1 (Mus musculus, UniProt Q9EP73).
T1 construct: Fc (Fc chimera); purchased R&D Systems 1019-B7-100
Briefly: Rescue of mouse splenocyte proliferation in the presence of recombinant PD-L1 (CFSE proliferation assay). In kind it is cell-based. The settings on record: 100 nM compound; CFSE-labelled C57 BL6 mouse splenocytes + anti-CD3/CD28 + PD-L1 (100 ng/mL), 72 h; normalised to stimulated splenocytes as 100%; read-out: Percent rescue of splenocyte proliferation (@100 nM). As for the experimental part: Example 15: Rescue of Mouse Splenocyte Proliferation in the Presence of Recombinant PD-L1
Recombinant mouse PD-L1 (rm-PDL-1, cat no: 1019-B7-100; R&D Systems) were used as the source of PD-L1.
Mouse splenocytes harvested from 6-8 weeks old C57 BL6 mice; RPMI 1640 (GIBCO, Cat #11875); DMEM with high glucose (GIBCO, Cat # D6429); Fetal Bovine Serum [Hyclone, Cat # SH30071.03]; Penicillin (10000 unit/mL)-Streptomycin (10,000 μg/mL) Liquid (GIBCO, Cat #15140-122); MEM Sodium Pyruvate solution 100 mM (100×), Liquid (GIBCO, Cat #11360); Nonessential amino acid (GIBCO, Cat #11140); L-Glutamine (GIBCO, Cat #25030); Anti-CD3 antibody (eBiosciences—16-0032); Anti-CD28 antibody (eBiosciences—16-0281); ACK lysis buffer (1 mL) (GIBCO, Cat #-A10492); Histopaque (density-1.083 gm/mL) (SIGMA 10831); Trypan blue solution (SIGMA-T8154); 2 mL Norm Ject Luer Lock syringe-(Sigma 2014-12); 40 μm nylon cell strainer (BD FALCON 35230); Hemacytometer (Bright line-SIGMA Z359629); FACS Buffer (PBS/0.1% BSA): Phosphate Buffered Saline (PBS) pH 7.2 (HiMedia TS1006) with 0.1% Bovine Serum Albumin (BSA) (SIGMA A7050) and sodium azide (SIGMA 08591); 5 mM stock solution of CFSE: CFSE stock solution was prepared by diluting lyophilized CFSE with 180 μL of Dimethyl sulfoxide (DMSO C2H6SO, SIGMA-D-5879) and aliquoted in to tubes for further use. Working concentrations were titrated from 10 μM to 1 μM. (eBioscience—650850-85); 0.05% Trypsin and 0.02% EDTA (SIGMA 59417C); 96-well format ELISA plates (Corning CLS3390); BD FACS caliber (E6016); Recombinant mouse B7-H1/PDL1 Fc Chimera, (rm-PD-L1 cat no: 1019-B7-100).
Splenocytes harvested in a 50 mL falcon tube by mashing mouse spleen in a 40 μm cell strainer were further treated with 1 mL ACK lysis buffer for 5 min at room temperature. After washing with 9 mL of RPMI complete media, cells were re-suspended in 3 mL of 1×PBS in a 15 mL tube. 3 mL of Histopaque was added carefully to the bottom of the tube without disturbing overlaying splenocyte suspension. After centrifuging at 800×g for 20 min at room temperature, the opaque layer of splenocytes was collected carefully without disturbing/mixing the layers. Splenocytes were washed twice with cold 1×PBS followed by total cell counting using Trypan Blue exclusion method and used further for cell based assays.
Splenocytes were cultured in RPMI complete media (RPMI+10% fetal bovine serum+1 mM sodium pyruvate+10,000 units/mL penicillin and […] streptomycin) and maintained in a CO2 incubator with 5% CO2 at 37° C.
CFSE is a dye that passively diffuses into cells and binds to intracellular proteins. 1×10^6 cells/mL of harvested splenocytes were treated with 5 μM of CFSE in pre-warmed 1×PBS/0.1% BSA solution for 10 min at 37° C. Excess CFSE was quenched using 5 volumes of ice-cold culture media to the cells and incubated on ice for 5 min. CFSE labelled splenocytes were further given three washes with ice cold complete RPMI media. CFSE labelled 1×10^5 splenocytes added to wells containing either MDA-MB231 cells (1×10^5 cells cultured in high glucose DMEM medium) or recombinant human PDL-1 (100 ng/mL) and test compounds. Splenocytes were stimulated with anti-mouse CD3 and anti-mouse CD28 antibody (1 μg/mL each) and the culture was further incubated for 72 h at 37° C. with 5% CO2. Cells were harvested and washed thrice with ice cold FACS buffer and % proliferation was analysed by flow cytometry with 488 nm excitation and 521 nm emission filters.
Percent splenocyte proliferation was analysed using cell quest FACS program and percent rescue of splenocyte proliferation by compound was estimated after deduction of % background proliferation value and normalising to % stimulated splenocyte proliferation (positive control) as 100%.
Stimulated splenocytes: Splenocytes+anti-CD3/CD28 stimulation
Background proliferation: Splenocytes+anti-CD3/CD28+PD-L1
Compound proliferation: Splenocytes+anti-CD3/CD28+PD-L1+Compound […]
Turning to `NC(=O)CC[C@H](NC(=O)N[C@@H](CC(N)=O)c1nc([C@@H](N)CO)no1)C(=O)O` [Compound 28], the activation at 0.1 µM came to 36%.

In the case of `CC(O)[C@H](NC(=O)[C@H](CCC(N)=O)NC(=O)N[C@@H](CC(N)=O)c1nc([C@@H](N)CO)no1)C(=O)O` (some centres unmarked) [Compound 81], the activation at 0.1 µM was determined as 18%.

Take `NC(=O)C[C@H](NS(=O)(=O)C1CC1)c1nc([C@@H](N)CO)no1` [Compound 84]: the activation at 0.1 µM worked out at 71%.

With `CC(O)[C@H](NC(=O)N[C@@H](C)c1nc([C@@H](N)CO)no1)C(=O)O` (some centres unmarked) [Compound 17], the activation at 0.1 µM came to 58%.

Consider `N[C@@H](Cc1ccc(O)cc1)c1noc([C@@H]2C(O)CCN2C(=O)N[C@@H](Cc2ccc(O)cc2)C(=O)O)n1` (some centres unmarked) [Compound 19], for which the activation at 0.1 µM was found to be 54%.

For `CCC(C)[C@H](NC(=O)N[C@@H](CCC(=O)O)C(=O)O)c1nc([C@@H](N)CCC(N)=O)no1` (some centres unmarked) [Compound 10], the activation at 0.1 µM worked out at 84%.

`N[C@@H](Cc1ccc(O)cc1)c1noc([C@@H]2CCCCN2C(=O)N[C@@H](Cc2ccc(O)cc2)C(=O)O)n1` [Compound 20]: the activation at 0.1 µM was found to be 51%.

As for `N[C@@H](CCC(=O)O)c1noc([C@@H]2CCCN2C(=O)N[C@@H](CC(=O)O)C(=O)O)n1` [Compound 24], the activation at 0.1 µM amounted to 17%.

On to `CC(C)[C@H](NC(=O)N[C@@H](CC(N)=O)c1nc([C@@H](N)CCCCN)no1)C(=O)O` [Compound 45], for which the activation at 0.1 µM was 17%.

On to `NCCCC[C@H](N)c1noc([C@H](CCC(=O)O)NC(=O)N[C@@H](CO)C(=O)O)n1` [Compound 37], for which the activation at 0.1 µM worked out at 60%.

Consider `CC(O)[C@H](NC(=O)N[C@@H](CCC(=O)O)c1nc([C@@H](N)CCCCN)no1)C(=O)O` (some centres unmarked) [Compound 38], for which the activation at 0.1 µM was found to be 52%.

As to `CC(O)[C@H](NC(=O)N[C@@H](CCC(N)=O)c1nc([C@@H](N)CCCNC(=N)N)no1)C(=O)O` (some centres unmarked) [Compound 33], the activation at 0.1 µM was 60%.

As for `CC(O)[C@H](NC(=O)N[C@@H](CC(N)=O)c1nc([C@@H](N)CCCCN)no1)C(=O)O` (some centres unmarked) [Compound 8], the activation at 0.1 µM worked out at 48%.

Consider `CC(O)[C@H](NC(=O)N[C@@H](Cc1ccccc1)c1nc([C@@H](N)CO)no1)C(=O)O` (some centres unmarked) [Compound 14], for which the activation at 0.1 µM was 92%.

With `NCCCC[C@H](N)c1noc([C@H](CCC(N)=O)NC(=O)N[C@@H](CO)C(=O)O)n1` [Compound 36], the activation at 0.1 µM stood at 68%.

For `N[C@@H](CC(=O)O)c1noc([C@@H]2CCCN2C(=O)N[C@@H](CC(=O)O)C(=O)O)n1` [Compound 23], the activation at 0.1 µM amounted to 49%.

As to `CC(O)[C@H](NC(=O)N[C@@H](CCCCN)c1nc([C@@H](N)CO)no1)C(=O)O` (some centres unmarked) [Compound 11], the activation at 0.1 µM came out at 66%.

For the molecule `NCCCC[C@H](N)c1noc([C@H](CCC(N)=O)NS(=O)(=O)N[C@@H](CO)C(=O)O)n1` [Compound 103], the activation at 0.1 µM is 79%.

With `CC(O)[C@H](N)c1noc([C@H](Cc2ccc(O)cc2)NC(=O)N2CCC[C@H]2C(=O)O)n1` (some centres unmarked) [Compound 60], the activation at 0.1 µM was found to be 99%.

Regarding `CC(O)[C@H](NC(=O)N[C@@H](CC(N)=O)c1nc([C@H](C)N)no1)C(=O)O` (some centres unmarked) [Compound 15], the activation at 0.1 µM was found to be 28%.
